Several values for one entry are separate records, joined by “and”; a condition that tells them apart may be missing. Identical values can stand only once. ± gives the expanded uncertainty stated by the source.

For data set [1] the following is noted: Crystal; DTA.
A short description of data set [2]: Molar enthalpy of transition or fusion. Particulars: Crystal; DSC.

With `O=C([O-])Cc1ccccc1Nc1c(Cl)cccc1Cl.[Na+]` [sodium diclofenac], in data set [1], the Normal melting temperature turned out to be 287 ± 3 °C. In addition, the “Molar enthalpy of transition or fusion” value in data set [2] is 31.8 kJ/mol and 39.8 kJ/mol.

These data come from the NIST ThermoML archive (doi:10.1016/j.fluid.2007.07.020).
